# Test results reported in patent US20240391862A1, “(1,4,5-TRISUBSTITUTED-1H-PYRAZOL-3-YL)OXY-2-ALKOXY ALKYL ACIDS AND THEIR DERIVATIVES, THEIR SALTS AND THEIR USE AS HERBICIDAL AGENTS” (Bayer AKtiengesellschaft, priority 2021, published 2024).
# Legend:
# Assay in all cases: Post-emergence herbicidal effect, greenhouse pot test
# ABUTH = type: in vivo, Abutilon theophrasti; conditions: visual rating about 3 weeks after treatment
# In short: (§1)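 Visual % activity scored roughly 3 weeks post-spray against untreated plants, where 100% means death and 0% equals control. Plants were treated at the one-leaf stage, 2 to 3 weeks after sowing in sandy loam, at 20 to 320 g/ha.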
# ALOMY = type: in vivo, Alopecurus myosuroides; conditions: visual rating about 3 weeks after treatment
# In short: as §1
# AMARE = type: in vivo, Amaranthus retroflexus; conditions: visual rating about 3 weeks after treatment
# In short: as §1
# AVEFA = type: in vivo, Avena fatua; conditions: visual rating about 3 weeks after treatment
# In short: as §1
# DIGSA = type: in vivo, Digitaria sanguinalis; conditions: 320 g/ha, visual rating about 3 weeks after treatment
# In short: as §1
# ECHCG = type: in vivo, Echinochloa crus-galli
# In short: as §1
# LOLRI = type: in vivo, Lolium rigidum
# In short: as §1
# MATIN = type: in vivo, Tripleurospermum inodorum
# In short: as §1
# PHBPU = type: in vivo, Ipomoea purpurea
# In short: as §1
# POLCO = type: in vivo, Fallopia convolvulus
# In short: as §1
# SETVI = type: in vivo, Setaria viridis
# In short: as §1
# VERPE = type: in vivo, Veronica persica
# In short: as §1
# VIOTR = type: in vivo, Viola tricolor
# In short: as §1
# KCHSC = type: in vivo
# In short: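 Visual rating of activity against untreated plants (100% = plants died, 0% = no effect), done about 3 weeks after treatment. Compounds applied at 20–320 g/ha as aqueous spray (600 l/ha, 0.5% additive) from WP or EC formulations onto one-leaf-stage plants grown in sandy loam under greenhouse conditions.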
structure (smiles),measurement,setting,value
COC(=O)C(OC)Oc1nn(-c2ncccc2F)c(-c2cncc(F)c2)c1C1CC1 (centres unmarked) [Example I-73],Post-emergence effect against ABUTH,ABUTH; 20 g/ha,80%
same,pest or weed control at 80 g/ha,"ABUTH; Abutilon theophrasti, 504 h, 80 g/ha, read-out: Post-emergence effect against ABUTH",80%
same,pest or weed control at 320 g/ha,"ABUTH; Abutilon theophrasti, 504 h, 320 g/ha, read-out: Post-emergence effect against ABUTH",90%
same,pest or weed control at 80 g/ha,"ALOMY; Alopecurus myosuroides, 504 h, 80 g/ha, read-out: Post-emergence effect against ALOMY",80%
same,pest or weed control at 320 g/ha,"ALOMY; Alopecurus myosuroides, 504 h, 320 g/ha, read-out: Post-emergence effect against ALOMY",90%
same,pest or weed control at 20 g/ha,"AMARE; Amaranthus retroflexus, 504 h, 20 g/ha, read-out: Post-emergence effect against AMARE",80%
same,pest or weed control at 80 g/ha,"AMARE; Amaranthus retroflexus, 504 h, 80 g/ha, read-out: Post-emergence effect against AMARE",90%
same,pest or weed control at 320 g/ha,"AMARE; Amaranthus retroflexus, 504 h, 320 g/ha, read-out: Post-emergence effect against AMARE",90%
same,pest or weed control at 80 g/ha,"AVEFA; Avena fatua, 504 h, 80 g/ha, read-out: Post-emergence effect against AVEFA",90%
same,pest or weed control at 320 g/ha,"AVEFA; Avena fatua, 504 h, 320 g/ha, read-out: Post-emergence effect against AVEFA",90%
same,pest or weed control at 320 g/ha,"DIGSA; Digitaria sanguinalis, 504 h, read-out: Post-emergence effect against DIGSA",80%
same,pest or weed control at 20 g/ha,"ECHCG; Echinochloa crus-galli, 504 h, 20 g/ha, visual rating about 3 weeks after treatment, read-out: Post-emergence effect against ECHCG",90%
same,pest or weed control at 80 g/ha,"ECHCG; Echinochloa crus-galli, 504 h, 80 g/ha, read-out: Post-emergence effect against ECHCG in %",90%
same,pest or weed control at 320 g/ha,"ECHCG; Echinochloa crus-galli, 504 h, 320 g/ha, read-out: Post-emergence effect against ECHCG in %",90%
same,pest or weed control at 80 g/ha,"LOLRI; Lolium rigidum, 504 h, 80 g/ha, read-out: Post-emergence effect against LOLRI in %",90%
same,pest or weed control at 320 g/ha,"LOLRI; Lolium rigidum, 504 h, 320 g/ha, read-out: Post-emergence effect against LOLRI in %",90%
same,pest or weed control at 80 g/ha,"MATIN; Tripleurospermum inodorum, 504 h, 80 g/ha, read-out: Post-emergence effect against MATIN in %",90%
same,pest or weed control at 320 g/ha,"MATIN; Tripleurospermum inodorum, 504 h, 320 g/ha, read-out: Post-emergence effect against MATIN in %",90%
same,pest or weed control at 20 g/ha,"PHBPU; Ipomoea purpurea, 504 h, 20 g/ha, read-out: Post-emergence effect against PHBPU in %",80%
same,pest or weed control at 80 g/ha,"PHBPU; Ipomoea purpurea, 504 h, 80 g/ha, read-out: Post-emergence effect against PHBPU in %",90%
same,pest or weed control at 320 g/ha,"PHBPU; Ipomoea purpurea, 504 h, 320 g/ha, read-out: Post-emergence effect against PHBPU in %",90%
same,Post-emergence effect against POLCO in %,POLCO; 20 g/ha,80%
same,pest or weed control at 80 g/ha,"POLCO; Fallopia convolvulus, 504 h, 80 g/ha, read-out: Post-emergence effect against POLCO in %",80%
same,pest or weed control at 320 g/ha,"POLCO; Fallopia convolvulus, 504 h, 320 g/ha, read-out: Post-emergence effect against POLCO in %",90%
same,Post-emergence effect against SETVI in %,SETVI; 20 g/ha,80%
same,pest or weed control at 80 g/ha,"SETVI; Setaria viridis, 504 h, 80 g/ha, read-out: Post-emergence effect against SETVI in %",90%
same,pest or weed control at 320 g/ha,"SETVI; Setaria viridis, 504 h, 320 g/ha, read-out: Post-emergence effect against SETVI in %",90%
same,pest or weed control at 80 g/ha,"VERPE; Veronica persica, 504 h, 80 g/ha, read-out: Post-emergence effect against VERPE in %",90%
same,pest or weed control at 320 g/ha,"VERPE; Veronica persica, 504 h, 320 g/ha, read-out: Post-emergence effect against VERPE in %",90%
same,pest or weed control at 20 g/ha,"VIOTR; Viola tricolor, 504 h, 20 g/ha, read-out: Post-emergence effect against VIOTR in %",90%
same,pest or weed control at 80 g/ha,"VIOTR; Viola tricolor, 504 h, 80 g/ha, read-out: Post-emergence effect against VIOTR in %",90%
same,pest or weed control at 320 g/ha,"VIOTR; Viola tricolor, 504 h, 320 g/ha, read-out: Post-emergence effect against VIOTR in %",90%
same,Post-emergence effect against KCHSC in %,KCHSC; 20 g/ha,80%
same,pest or weed control at 80 g/ha,"KCHSC; 504 h, 80 g/ha, read-out: Post-emergence effect against KCHSC in %",90%
same,pest or weed control at 320 g/ha,"KCHSC; 504 h, 320 g/ha, read-out: Post-emergence effect against KCHSC in %",90%
COC(=O)CCOC(=O)C(OC)Oc1nn(-c2cc(F)ccc2F)c(-c2cncc(F)c2)c1C1CC1 (centres unmarked) [Example I-83],Post-emergence effect against ABUTH,ABUTH; 20 g/ha,80%
same,Post-emergence effect against ABUTH,ABUTH; 80 g/ha,90%
same,Post-emergence effect against ABUTH,ABUTH; 320 g/ha,90%
same,Post-emergence effect against ALOMY,ALOMY; 80 g/ha,90%
same,Post-emergence effect against ALOMY,ALOMY; 320 g/ha,90%
same,Post-emergence effect against AMARE,AMARE; 20 g/ha,90%
same,Post-emergence effect against AMARE,AMARE; 80 g/ha,90%
same,Post-emergence effect against AMARE,AMARE; 320 g/ha,90%
same,Post-emergence effect against AVEFA,AVEFA; 80 g/ha,90%
same,Post-emergence effect against AVEFA,AVEFA; 320 g/ha,90%
same,Post-emergence effect against DIGSA,DIGSA,90%
same,Post-emergence effect against ECHCG,"ECHCG; 20 g/ha, visual rating about 3 weeks after treatment",90%
same,Post-emergence effect against ECHCG in %,ECHCG; 80 g/ha,90%
same,Post-emergence effect against ECHCG in %,ECHCG; 320 g/ha,90%
same,Post-emergence effect against LOLRI in %,LOLRI; 320 g/ha,90%
same,Post-emergence effect against MATIN in %,MATIN; 20 g/ha,80%
same,Post-emergence effect against MATIN in %,MATIN; 80 g/ha,90%
same,Post-emergence effect against MATIN in %,MATIN; 320 g/ha,90%
same,Post-emergence effect against PHBPU in %,PHBPU; 20 g/ha,90%
same,Post-emergence effect against PHBPU in %,PHBPU; 80 g/ha,90%
same,Post-emergence effect against PHBPU in %,PHBPU; 320 g/ha,90%
same,Post-emergence effect against POLCO in %,POLCO; 80 g/ha,80%
same,Post-emergence effect against POLCO in %,POLCO; 320 g/ha,90%
same,Post-emergence effect against SETVI in %,SETVI; 20 g/ha,90%
same,Post-emergence effect against SETVI in %,SETVI; 80 g/ha,90%
same,Post-emergence effect against SETVI in %,SETVI; 320 g/ha,90%
same,Post-emergence effect against VERPE in %,VERPE; 20 g/ha,90%
same,Post-emergence effect against VERPE in %,VERPE; 80 g/ha,90%
same,Post-emergence effect against VERPE in %,VERPE; 320 g/ha,90%
same,Post-emergence effect against VIOTR in %,VIOTR; 20 g/ha,90%
same,Post-emergence effect against VIOTR in %,VIOTR; 80 g/ha,90%
same,Post-emergence effect against VIOTR in %,VIOTR; 320 g/ha,90%
same,Post-emergence effect against KCHSC in %,KCHSC; 320 g/ha,80%
